Measured values taken from patent publication US20250296971A1, “GASTRIC INHIBITORY PEPTIDE RECEPTOR LIGANDS” (priority 2021, published 2025).
Like-named read-outs stand apart in the source and are kept apart here. *1 amine or outer side, *2 acyl side, *3 side chain or, on linkers, in order; H or OH if unused. Where a SMILES comes first, the peptide text is derived from it. Bridges are numbered along the chain shown (N, C = ends). [ ]: non-standard residue; d: D form. The star is where a group is joined. X5 = NC(=O)[C@H](CCCCNC(=O)CN1CCN(CC(=O)O)CCN(CC(=O)O)CCN(CC(=O)O)CC1)NC(=O)CCC(=O)NCCCOCCOCCOCCCN*; NH(1-deoxy-D-glucityl) = OC[C@@H](O)[C@@H](O)[C@H](O)[C@@H](O)CN*; DOTA = O=C(O)CN1CCN(CC(=O)O)CCN(CC(=O)*)CCN(CC(=O)O)CC1; Propanoyl(3-(1-naphthyl)) = O=C(CCc1cccc2ccccc12)*; Trp(5-Br) = N[C@@H](Cc1c[nH]c2ccc(Br)cc12)C(=O)O; Trp(5-Cl) = N[C@@H](Cc1c[nH]c2ccc(Cl)cc12)C(=O)O; Pyridine(2,6-diCH2) = c1cc(C[*:1])nc(C[*:2])c1; Pro(4R-NH2) = N[C@H]1CN[C@H](C(=O)O)C1; mXylylene = c1cc(C[*:1])cc(C[*:2])c1; Glutaryl = O=C(CCCC(=O)[*:2])[*:1]; Hyp = O=C(O)[C@@H]1C[C@@H](O)CN1; X1 = O=C(CN1CCC(N[*:1])CC1)[*:2]; Api = NC1(C(=O)O)CCNCC1; Thp = NC1(C(=O)O)CCOCC1; Aib = CC(C)(N)C(=O)O

Biological target: T1, GIPR (CHO-K1-hGIPR cells) (Homo sapiens, UniProt P48546)
T1 construct: host or cells: CHO-K1
T1 sequence (P48546 22-466): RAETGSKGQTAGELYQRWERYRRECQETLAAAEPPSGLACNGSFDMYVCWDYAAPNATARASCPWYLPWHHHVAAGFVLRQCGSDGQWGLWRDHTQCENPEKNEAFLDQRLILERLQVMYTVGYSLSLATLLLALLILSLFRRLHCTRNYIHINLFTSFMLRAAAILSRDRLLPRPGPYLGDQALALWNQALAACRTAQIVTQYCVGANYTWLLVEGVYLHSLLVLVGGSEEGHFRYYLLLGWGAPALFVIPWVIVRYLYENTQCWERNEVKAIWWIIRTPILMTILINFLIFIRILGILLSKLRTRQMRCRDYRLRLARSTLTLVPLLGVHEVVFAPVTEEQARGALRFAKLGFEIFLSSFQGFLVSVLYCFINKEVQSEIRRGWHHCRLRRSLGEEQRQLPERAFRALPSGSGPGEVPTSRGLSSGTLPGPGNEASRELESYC
Assay: FACS binding assay
Conditions: for IC50: read-out: pIC50 Category (converted)
How it was run: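 CHO-K1 cells expressing human GIPR, washed in PBS/1% FCS, then stained with 1 μg/mL APC-streptavidin for 30 min on ice.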

[1] = competition with 20 nM GIP-057, 4° C. for 1 hour
[2] = competition with 20 nM GIP-057, 4° C., 1 hour

Row | IC50 [1] | IC50 [2] | Compound | other results
1 | > 1000 nM | – | CC[C@H](C)[C@@H]1NC(=O)[C@H](CC(C)C)NC(=O)[C@H](C)NC(=O)[C@@H](NC(=O)[C@H](CC(C)C)NC(=O)[C@H](CCC(=O)O)NC(=O)[C@@H]2CCCN2C(C)=O)CSCc2cccc(c2)CSC[C@@H](C(N)=O)NC1=O [GIP-326, Ac-Pro-Glu-Leu-[Cys(3MeBn)-Ala-Leu-Ile-Cys]-NH2] (Ac-PELCALIC-NH2; linker 4-8 via mXylylene) | –
2 | 100 to 794 nM | – | CC[C@H](C)[C@@H]1NC(=O)[C@H](CC(C)C)NC(=O)C2(CCOCC2)NC(=O)[C@@H](NC(=O)[C@@H](CC(C)C)NC(=O)[C@H](CCC(=O)O)NC(=O)[C@@H]2C[C@@H](O)CN2C(=O)[C@H](Cc2c[nH]c3ccc(Cl)cc23)NC(=O)[C@H](Cc2c[nH]c3ccccc23)NC(=O)[C@H](CC(=O)O)NC(C)=O)CSSC[C@@H](C(N)=O)NC1=O [GIP-364, Ac-Asp-Trp-5Clw-Hyp-Glu-leu-[Cys-Thp-Leu-Ile-Cys]-NH2] (Ac-DW[Trp(5-Cl)][Hyp]E[dL]C[Thp]LIC-NH2; disulfide 7-11) | –

Second part, the compound before the results:

Row | Compound | IC50 [1] | IC50 [2] | other results
3 | CC[C@H](C)[C@@H]1NC(=O)[C@H](CC(C)C)NC(=O)C(C)(C)NC(=O)[C@@H](NC(=O)[C@@H](CC(C)C)NC(=O)[C@H](CCC(=O)O)NC(=O)[C@@H]2CCCN2C(=O)[C@H](Cc2c[nH]c3ccccc23)NC(=O)[C@H](Cc2c[nH]c3ccccc23)NC(=O)[C@H](CC(=O)O)NC(=O)CCc2cccc3ccccc23)CSCc2cccc(c2)CSC[C@@H](C(=O)NCCCOCCOCCOCCCNC(=O)CCC(=O)N[C@@H](CCCCNC(=O)CN2CCN(CC(=O)O)CCN(CC(=O)O)CCN(CC(=O)O)CC2)C(N)=O)NC1=O [GIP-280, Nph1p-Asp-Trp-Trp-Pro-Glu-leu-[Cys(3MeBn)-Aib-Leu-Ile-Cys]-Ttds-Lys(DOTA)-NH2] ({Propanoyl(3-(1-naphthyl))}-DWWPE[dL]C[Aib]LIC-X5; linker 7-11 via mXylylene) | 100 to 794 nM | – | –
4 | CC[C@H](C)[C@@H]1NC(=O)[C@H](CC(C)C)NC(=O)C2(CCN(C(=O)CN3CCN(CC(=O)O)CCN(CC(=O)O)CCN(CC(=O)O)CC3)CC2)NC(=O)[C@@H](NC(=O)[C@@H](CC(C)C)NC(=O)[C@H](CCC(=O)O)NC(=O)[C@@H]2C[C@@H](N)CN2C(=O)[C@H](Cc2c[nH]c3ccc(Cl)cc23)NC(=O)[C@H](Cc2c[nH]c3ccccc23)NC(=O)[C@H](CC(=O)O)NC(=O)CN2CCC(NC(=O)CCCC(=O)NC[C@H](O)[C@@H](O)[C@H](O)[C@H](O)CO)CC2)CSCc2cccc(n2)CSC[C@@H](C(=O)N[C@H](CCC(=O)NC[C@H](O)[C@@H](O)[C@H](O)[C@H](O)CO)C(N)=O)NC1=O [GIP-033, AGLU-Glutar-APAc-Asp-Trp-5Clw-Hyp-Glu-leu-[Cys(2Lut)-Apc(DOTA)-Leu-Ile-Cys]-glu(AGLU)-NH2] ({NH(1-deoxy-D-glucityl)-Glutaryl}-[X1]DW[Trp(5-Cl)][Pro(4R-NH2)]E[dL]C[Api](DOTA)LIC[dE](NH(1-deoxy-D-glucityl))-NH2; linker 8-12 via Pyridine(2,6-diCH2)) | – | < 10 nM | –
5 | HO-Succinyl-Trp-5Clw-Hyp-Glu-leu-[Cys(2Lut)-Thp-Leu-Ile-Cys]-APAc-lys(MeO2kDaPEGAc)-Lys(DOTA)-NH2 [GIP-144] | – | – | pIC50 Category [2]: B (pIC50 values between 7.1 and 8.0)
6 | CC[C@H](C)[C@@H]1NC(=O)[C@H](CC(C)C)NC(=O)C2(CCN(C(=O)CN3CCN(CC(=O)O)CCN(CC(=O)O)CCN(CC(=O)O)CC3)CC2)NC(=O)[C@@H](NC(=O)[C@@H](CC(C)C)NC(=O)[C@H](CCC(=O)O)NC(=O)[C@@H]2C[C@@H](N)CN2C(=O)[C@H](Cc2c[nH]c3ccc(Br)cc23)NC(=O)[C@H](Cc2c[nH]c3ccccc23)NC(=O)[C@H](CC(=O)O)NC(=O)CCCC(=O)NC[C@H](O)[C@@H](O)[C@H](O)[C@H](O)CO)CSCc2cccc(n2)CSC[C@@H](C(=O)NC2CCN(CC(=O)N[C@H](CCC(=O)NC[C@H](O)[C@@H](O)[C@H](O)[C@H](O)CO)C(N)=O)CC2)NC1=O [GIP-015, AGLU-Glutar-Asp-Trp-5Brw-Tap-Glu-leu-[Cys(2Lut)-Apc(DOTA)-Leu-Ile-Cys]-APAc-glu(AGLU)-NH2] ({NH(1-deoxy-D-glucityl)-Glutaryl}-DW[Trp(5-Br)][Pro(4R-NH2)]E[dL]C[Api](DOTA)LIC[X1][dE](NH(1-deoxy-D-glucityl))-NH2; linker 7-11 via Pyridine(2,6-diCH2)) | – | < 10 nM | –
